Test results reported in publication PMC11411626 (2024).
Values belong to the compound of their own block, whether it stands above or below them.

How the values were obtained:
[1] = tested on: CAG RNA oligonucleotide (RNA, repeat) GCAGCAGCUUCGGCAGCAGC; assay: fluorescence well-plate screening; conditions: buffer pH 7, 5 μM ligand, 1 equiv. RNA
[2] = tested on: CUG RNA motif (RNA, repeat) GGUCGCUGCUGCACGAAAGUGCUGCUGCGACC; assay: fluorescence well-plate screening; conditions: buffer pH 7, 5 μM ligand, 1 equiv. RNA
[3] = tested on: CAG RNA oligonucleotide (RNA, repeat) GCAGCAGCUUCGGCAGCAGC; assay: spectrophotometric titration; conditions: 2a 5 μM, RNA/2a 0–4; SpecFit 1:1 fit
[4] = no pronounced interaction, small fluorescence change

SMILES: O=C1/C(=C/c2c3ccccc3cc3ccccc23)Oc2ccccc21
binding ([1]; 21% light-up, aggregation prevented titration): yes | binding ([2]; excitation 450 nm, almost no interaction): no

SMILES: CN(C)CCOc1ccc(/C=C2\Oc3cc(OCCN(C)C)ccc3C2=O)cc1
K [3]: (1.4 ± 0.1) × 10^5 M^-1 | binding ([2]; absent or very weak interaction): no

SMILES: COc1cc(/C=C2\Nc3ccccc3C2=O)ccc1OCCCN(C)C
binding [1]: no

SMILES: N=C(N)c1ccc(-c2ccc(-c3ccc(C(=N)N)cc3)o2)cc1
binding ([1]; 57% quenching): yes

Continued, values first:

binding [1, 4]: no
SMILES: CN(C)CCOc1ccc(/C=C2\Oc3cc(O)ccc3C2=O)cc1

binding [1, 4]: no
SMILES: COc1ccc(/C=C2\Oc3cc(OCCN(C)C)ccc3C2=O)cc1

binding [1]: no
SMILES: COc1ccc(/C=C2\Oc3ccccc3C2=O)cc1
